Assay results reported in patent US20030161893A1, “PTPase inhibitors and methods of using the same” (priority 2001, published 2003).

Columns and labels:
WM9 cells = test: Cell proliferation assay (MTT), WM9 melanoma cells; assay type: cell-based, human
Procedure: (§1) For cell proliferation assays, cells were grown in 10% FCS culture medium containing various amounts of IFNs and/or sodium stibogluconate in 96 well plates and cultured at 37° C. for 3 or 6 days as indicated. The numbers of viable cells in proliferation assays were determined by MTT assays as described in Phatak et al., J. Immunol. 167, 3391 (2001).
Dose response curves were generated for each drug alone, and also the combinations. Median effect plots were generated for IFNs alone, sodium stibogluconate alone, and the combination. The combination index (CI) was determined and plotted vs. fraction affected (FA). Data were analyzed in both modes, mutually exclusive and mutually nonexclusive. The interaction between two mutually nonexclusive drugs is described by the Equation CI=D1/D×1+D2/D×2+D1D2/D×1D×2, where D×1 and D×2 are the doses of drug 1 and drug 2 that are required to inhibit growth×%. […] When CI<1, drugs are synergistic, when CI=1, drugs are additive, and when CI>1, drugs are antagonistic.

HEY cells = test: Cell growth assay (MTT), HEY ovarian cancer cells; assay type: cell-based, human; settings: 100 μg/ml, day 6
Procedure: (§2) NIH3T3 (Yi, et al., Blood 85, 87 (1995)), WM9 (Forsberg, et al., Proc. Nat. Acad Sci. USA 90, 393 (1993)), DU145 (Mickey, et al., Cancer Res. 37, 4049 (1977)), LoVo (Drewinko, et al., Cancer Res. 36, 467 (1976)), HEY (Buick, et al., Cancer Res. 45, 3668 (1985)), U251 (Yoshida, et al., Cancer 50, 410 (1982)), A549 (Giard, et al., J. Natl. Cancer Inst. 51, 1417 (1973)) and SK-N-SH (Helson, et al., Cancer Res. 35, 2594 (1975)) cell lines have been described and were cultured in RPMI 1640 supplemented with 10% fetal calf serum (FCS). For measurement of sodium stibogluconate effects on cell growth in vitro, cells were cultured in the absence (−) or presence (+) of various amounts of sodium stibogluconate for 6 days with viable cells quantified by MTT assays (Mosmann, J. Imunol. Methods 65, 55 (1983)). Percentages of growth inhibition by sodium stibogluconate were calculated (+/−×%).

Baf3 cells = test: Induction of cellular protein tyrosine phosphorylation in Baf3 cells (Western blotting); assay type: cell-based, murine; settings: Baf3 deprived of IL-3; proteins of about 55 and 32 kDa
Procedure: For induction of cellular protein phosphorylation by sodium stibogluconate or pervanadate, Baf3 cells were incubated in 0.1% FCS-RPMI 1640 medium at 37° C. for 16 hours. The cells were then washed twice in RPMI 1640 medium and incubated with sodium stibogluconate or pervanandate (0.1 mM) for various times prior to termination by lysing cells in cold lysis buffer (50 mM Tris, pH 7.4; 150 mM NaCl; 0.2 mM Na3VO4; 20 mm NaF; 1% Nonidet P-40; 2 mM PMSF; 20 μg/ml of Aprotinin and 1 mM of sodium molybdic acid). To determine the effect of sodium stibogluconate or potassium antimonyl tartrate on IL-3-induced Jak/Stat phosphorylation, Baf3 cells were deprived of the growth factor for 16 hours in 0.1% FCS RPMI 1640 medium and then incubated with or without sodium stibogluconate or potassium antimonyl tartrate for 10 minutes. IL-3 was next added to the cell suspension and incubated for various times. The Cells were then harvested and lysed in cold lysis buffer at 4° C. for 45 minutes. Total cell lysates (TCL) were separated in SDS-PAGE gels, blotted onto nitrocellulose membrane (Schleicher & Schuell), probed with specific antibodies and detected using an enhanced chemiluminescence kit (ECL, Amersham, Arlington Heights, Ill.).

Flag-PRL-3 = target: T1, Flag-PRL-3 (Homo sapiens, UniProt O75365); test: Immunocomplex PTPase assay, Flag-PRL-3 NIH3T3 transfectants; assay type: cell-based; settings: cells treated 5 min
T1 construct: expressed in transfected cells
Procedure: (§3) Immunocomplex PTPase assays were performed to assess the effects of sodium stibogluconate on intracellular PTPases. Cells were untreated or treated with sodium stibogluconate for 5 minutes, washed with fresh medium and then lysed in cold lysis buffer (50 mM Tris, pH 7.4; 150 mM NaCl; 1% NP40; 2 mM PMSF; 20 ,g/ml of Aprotinin). The lysates were incubated with an anti-Flag antibody in immunoprecipitation assays. The immunocomplexes were collected with protein G sepharose beads (Pharmacia) and washed in cold lysis buffer for 4 times. […] 100 μL of malachite green solution (UBI) was added to each reaction prior to measurement of OD660 to quantify the amounts of free phosphate cleaved by the PTPases from the peptide substrate (Pathak et al., J. Imumol. 167, 3391 (2001)). The remaining 10% contents of individual samples were analyzed by SDS-PAGE/Western blotting to quantify the relative amounts of the phosphatase proteins. […]
(§4) The effects of sodium stibogluconate on intracellular PTPases were assessed using NIH3T3 or WM9 transfectants. […]

LoVo cells = test: Cell growth assay (MTT), LoVo colon cancer cells; assay type: cell-based, human; settings: 100 μg/ml, day 6
Procedure: as §2

WiT49-N1 cells = test: Cell proliferation assay (MTT), WiT49-N1 Wilms tumor cells; assay type: cell-based, human; settings: day 6
Procedure: as §1

A549 cells = test: Cell growth assay (MTT), A549 lung cancer cells; assay type: cell-based, human; settings: 100 μg/ml, day 6
Procedure: as §2

AML-3 cells = test: AML-3 cell differentiation; assay type: cell-based, human
Flag-PRL-2 = target: T2, Flag-PRL-2 (Homo sapiens, UniProt Q12974); test: Immunocomplex PTPase assay, Flag-PRL-2 NIH3T3 transfectants; assay type: cell-based
T2 construct: expressed in transfected cells
Procedure: as §3, §4

SK-N-SH cells = test: Cell growth assay (MTT), SK-N-SH neuroblastoma cells; assay type: cell-based, human; settings: 100 μg/ml, day 6
Procedure: as §2

T2 sequence (Q12974 whole entry): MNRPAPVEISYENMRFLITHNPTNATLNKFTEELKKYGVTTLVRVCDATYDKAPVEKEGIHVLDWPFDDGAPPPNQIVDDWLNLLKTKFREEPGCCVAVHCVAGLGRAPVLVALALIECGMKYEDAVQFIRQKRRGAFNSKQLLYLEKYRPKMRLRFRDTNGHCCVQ
T1 sequence (O75365 whole entry): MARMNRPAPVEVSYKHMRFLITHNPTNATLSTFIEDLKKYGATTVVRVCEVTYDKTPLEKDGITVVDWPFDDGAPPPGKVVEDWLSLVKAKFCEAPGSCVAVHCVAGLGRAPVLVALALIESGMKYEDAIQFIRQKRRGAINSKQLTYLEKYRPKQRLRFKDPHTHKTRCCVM

## O.O.O.O.O.O.O.O.O.O=C([O-])[C@@H]1[O][Sb]2([O-])([O][Sb]34([OH])[O][C@H]([C@H](O)CO)[C@H]([O]3)[C@H](C(=O)[O-])[O]4)[O][C@H]([C@H](O)CO)[C@@H]1[O]2.[Na+].[Na+].[Na+] [sodium stibogluconate]
WM9 cells; 50 μg/ml and 100 μg/ml, day 6 culture
  killing of WM9 cells, single agent: killed all cells
WM9 cells; day 6
  IFN-alpha-induced growth inhibition of WM9 in presence of drug: augmented
WM9 cells; day 6, most dramatic at 12.5-50 μg/ml and IFNs 12.5-50 units/ml
  IFN-alpha- and IFN-beta-induced growth inhibition of WM9 in presence of drug: greatly enhanced
HEY cells
  cell killing, HEY: near-complete cell killing
Baf3 cells
  cellular protein tyrosine phosphorylation: induced protein tyrosine phosphorylation
Flag-PRL-3
  PTPase activity of anti-Flag immunocomplexes, Flag-PRL-3: lack of PTPase activity
LoVo cells
  cell killing, LoVo: near-complete cell killing
WiT49-N1 cells
  growth inhibition of WiT49-N1 with added IFN-alpha: not enhanced by IFN-alpha
  sensitivity of WiT49-N1 cells: sensitive
A549 cells
  cell killing, A549: near-complete cell killing
AML-3 cells
  differentiation of AML-3 cells: inducing differentiation
Flag-PRL-2; brief treatment, NIH3T3 transfectants
  time for full removal of effect on intracellular PRL-2 activity: at least 24 hours
Flag-PRL-2; cells treated 5 min
  PTPase activity of anti-Flag immunocomplexes, Flag-PRL-2: lack of PTPase activity
SK-N-SH cells
  cell killing, SK-N-SH: near-complete cell killing
